Values of other authors, collected in patent US20050004065A1, “Hypoxia regulated genes” (Quark Biotech, Inc., priority 1998, published 2005).

Tested on: neuron cells
Conditions: in vitro; previously shown

| Compound | toxicity for neuron cells |
| --- | --- |
| CC(C)C(O)CC[C@@H](C)[C@H]1CC[C@H]2[C@@H]3CC=C4C[C@@H](O)CC[C@]4(C)[C@H]3CC[C@]12C (some centres unmarked) [24-hydroxycholesterol] | toxic for neuron cells in vitro |
| C[C@H](CCCC(C)(C)O)[C@H]1CC[C@H]2[C@@H]3CC=C4C[C@@H](O)CC[C@]4(C)[C@H]3CC[C@]12C [25-hydroxycholesterol] | toxic for neuron cells in vitro |
